Patent US6852673B2, “Herbicidal pyridine compounds” (BASF Aktiengesellschaft, priority 1998, dated 2005)

What was measured:
Type in all cases: in vivo
[1] = tested on: Echinochloa grus galli (ECHCG); assay: Pre-emergence herbicidal evaluation, barnyard grass
Text: (§1) The pre-emergence herbicidal activity of the compounds of the present invention is exemplified by the following test in which the seeds of a variety of monocotyledonous and dicotyledonous plants are seperately mixed with potting soil and planted on top of approximately one inch of soil in separate pots. After planting, the pots are sprayed with the selected aqueous acetone solution containing test compound in sufficient quantity to provide the equivalent of about 0.0125 to 0.4 kg per hectare of test compound per pot. The treated pots are then placed on greenhouse benches, watered and cared for in accordance with conventional greenhouse procedures. From 2 to 4 weeks after treatment, the tests are terminated and each pot is examined and rated according to the rating system set forth below.

Setaria viridis (SETVI) [2] = assay: Pre-emergence herbicidal evaluation, green foxtail
Text: as §1

Hordeum vulgare (HORVW) = assay: Post-emergence herbicidal evaluation, winter barley; conditions: rated 2 to 4 weeks after treatment
Protocol: (§2) [table] [table] […] These acetone solutions are diluted with water and the resulting formulations applied at dosage levels equivalent of about 0.03 to 0.4 kg per hectare of test compound per pot. After spraying the plants are placed on greenhouse benches and are cared for in the usual manner, commensurate with conventional greenhouse practices. From 2 to 4 weeks after treatment, the seedling plants are examined and rated according to the rating system provided above. A rating 0 indicates growth as untreated control, a rating 9 indicates death.

Oryza sativum (ORYSA) = assay: Post-emergence herbicidal evaluation, rice; conditions: rated 2 to 4 weeks after treatment
Protocol: as §2

[3] = tested on: Triticum aestivum (TRZAW); assay: Post-emergence herbicidal evaluation, winter wheat; conditions: rated 2 to 4 weeks after treatment
Protocol: as §2

Zea mays (ZEAMX) = assay: Post-emergence herbicidal evaluation, maize; conditions: rated 2 to 4 weeks after treatment
Protocol: as §2

[4] = tested on: Abutilon theophrasti (ABUTH); assay: Post-emergence herbicidal evaluation, velvetleaf; conditions: rated 2 to 4 weeks after treatment
Protocol: as §2

[5] = tested on: Ambrosia artemiisifolia (AMBEL); assay: Post-emergence herbicidal evaluation, ragweed; conditions: rated 2 to 4 weeks after treatment
Protocol: as §2

Galium aparine (GALAP) = assay: Post-emergence herbicidal evaluation, cleaver; conditions: rated 2 to 4 weeks after treatment
Protocol: as §2

[6] = tested on: Ipomoea hederacea (IPOHE); assay: Post-emergence herbicidal evaluation, morning glory; conditions: rated 2 to 4 weeks after treatment
Protocol: as §2

Lamium purpureum (LAMPU) = assay: Post-emergence herbicidal evaluation, purple deadnettle; conditions: rated 2 to 4 weeks after treatment
Protocol: as §2

[7] = tested on: Matricaria inodora (MATIN); assay: Post-emergence herbicidal evaluation, mayweed; conditions: rated 2 to 4 weeks after treatment
Protocol: as §2

Solanum nigrum (SOLNI) = assay: Post-emergence herbicidal evaluation, black nightshade; conditions: rated 2 to 4 weeks after treatment
Protocol: as §2

Stellaria media (STEME) = assay: Post-emergence herbicidal evaluation, chickweed; conditions: rated 2 to 4 weeks after treatment
Protocol: as §2

[8] = tested on: Alopecurus myosuroides (ALOMY); assay: Post-emergence herbicidal evaluation, black grass; conditions: rated 2 to 4 weeks after treatment
Protocol: as §2

[9] = tested on: Digitaria sanguinalis (DIGSA); assay: Post-emergence herbicidal evaluation, large crabgrass; conditions: rated 2 to 4 weeks after treatment
Protocol: as §2

[10] = tested on: Echinochloa grus galli (ECHCG); assay: Post-emergence herbicidal evaluation, barnyard grass; conditions: rated 2 to 4 weeks after treatment
Protocol: as §2

Setaria viridis (SETVI) [11] = assay: Post-emergence herbicidal evaluation, green foxtail; conditions: for SETVI rating: rated 2 to 4 weeks after treatment
Protocol: as §2

weeds = assay: Post-emergence herbicidal evaluation, overall weed control; conditions: in barley at crop selective doses
Protocol: as §2

Cc1cc(OCC(F)(F)C(F)(F)F)nc(Oc2cc(C(F)(F)F)nn2C)c1 [Example 7]
0 (0 - No effect): ECHCG rating ([1]; dose 0.013 kg/ha) | LAMPU rating (Lamium purpureum (LAMPU); dose 0.03 kg/ha) | SOLNI rating (Solanum nigrum (SOLNI); dose 0.03 kg/ha) | SOLNI rating (Solanum nigrum (SOLNI); dose 0.1 kg/ha) | SOLNI rating (Solanum nigrum (SOLNI); dose 0.4 kg/ha)
effective: grass control such as Setaria virides (Setaria viridis (SETVI) [11]; in barley at crop selective doses) | broad-leaved weed control (weeds)
5 (5 - Definite injury): SETVI rating (Setaria viridis (SETVI) [2]; dose 0.1 kg/ha) | AMBEL rating ([5]; dose 0.4 kg/ha) | GALAP rating (Galium aparine (GALAP); dose 0.1 kg/ha) | GALAP rating (Galium aparine (GALAP); dose 0.4 kg/ha) | STEME rating (Stellaria media (STEME); dose 0.1 kg/ha) | STEME rating (Stellaria media (STEME); dose 0.4 kg/ha) | ALOMY rating ([8]; dose 0.4 kg/ha)
1 (1 - Trace effect): ECHCG rating ([1]; dose 0.025 kg/ha) | AMBEL rating ([5]; dose 0.03 kg/ha)
8 (8 - Approaching complete kill): SETVI rating (Setaria viridis (SETVI) [2]; dose 0.4 kg/ha) | MATIN rating ([7]; dose 0.4 kg/ha) | SETVI rating (Setaria viridis (SETVI) [11]; dose 0.4 kg/ha)
6 (6 - Herbicidal effect): LAMPU rating (Lamium purpureum (LAMPU); dose 0.4 kg/ha)
3 (3 - Moderate effect): HORVW rating (Hordeum vulgare (HORVW); dose 0.1 kg/ha) | HORVW rating (Hordeum vulgare (HORVW); dose 0.4 kg/ha) | ORYSA rating (Oryza sativum (ORYSA); dose 0.03 kg/ha) | ORYSA rating (Oryza sativum (ORYSA); dose 0.1 kg/ha) | ORYSA rating (Oryza sativum (ORYSA); dose 0.4 kg/ha) | TRZAW rating ([3]; dose 0.4 kg/ha) | ZEAMX rating (Zea mays (ZEAMX); dose 0.4 kg/ha) | GALAP rating (Galium aparine (GALAP); dose 0.03 kg/ha) | IPOHE rating ([6]; dose 0.03 kg/ha)
7 (7 - Good herbicidal effect): ECHCG rating ([1]; dose 0.4 kg/ha) | MATIN rating ([7]; dose 0.1 kg/ha) | ECHCG rating ([10]; dose 0.1 kg/ha) | ECHCG rating ([10]; dose 0.4 kg/ha)
2 (2 - Slight effect): SETVI rating (Setaria viridis (SETVI) [2]; dose 0.013 kg/ha) | SETVI rating (Setaria viridis (SETVI) [2]; dose 0.025 kg/ha) | HORVW rating (Hordeum vulgare (HORVW); dose 0.03 kg/ha) | TRZAW rating ([3]; dose 0.03 kg/ha) | TRZAW rating ([3]; dose 0.1 kg/ha) | ZEAMX rating (Zea mays (ZEAMX); dose 0.03 kg/ha) | ZEAMX rating (Zea mays (ZEAMX); dose 0.1 kg/ha) | ABUTH rating ([4]; dose 0.03 kg/ha) | ABUTH rating ([4]; dose 0.4 kg/ha) | AMBEL rating ([5]; dose 0.1 kg/ha) | LAMPU rating (Lamium purpureum (LAMPU); dose 0.1 kg/ha) | MATIN rating ([7]; dose 0.03 kg/ha) | STEME rating (Stellaria media (STEME); dose 0.03 kg/ha) | ALOMY rating ([8]; dose 0.03 kg/ha) | DIGSA rating ([9]; dose 0.03 kg/ha) | SETVI rating (Setaria viridis (SETVI) [11]; dose 0.03 kg/ha)
9 (9 - Complete kill): IPOHE rating ([6]; dose 0.1 kg/ha) | IPOHE rating ([6]; dose 0.4 kg/ha) | DIGSA rating ([9]; dose 0.1 kg/ha) | DIGSA rating ([9]; dose 0.4 kg/ha)
4 (4 - Injury): ECHCG rating ([1]; dose 0.1 kg/ha) | ALOMY rating ([8]; dose 0.1 kg/ha) | ECHCG rating ([10]; dose 0.03 kg/ha) | SETVI rating (Setaria viridis (SETVI) [11]; dose 0.1 kg/ha)
